We go through 2 compounds from patent US9345703B2, “Kappa opioid receptor effectors and uses thereof” (University of Kansas, priority 2011, dated 2016).

Marks after values point to notes of the source that are not given here. Some results are limits rather than exact numbers.

Usually Ki stands for a measure of affinity in units of concentration, obtained from inhibition or displacement. As usually defined, the Papp is the rate of passage across a membrane or cell layer, normalised by area and donor concentration.

Data set [1] addresses T1, DOR (Homo sapiens, UniProt P41143). The experiment in a line: High content imaging β-arrestin translocation assay, DOR antagonist (DOR HCS). The format is cell-based. Particulars: antagonist; average; read-out: Potency, Antitarget DOR HCS. The source says: (§1) In this campaign, two assay platforms were employed to evaluate KOR activity and selectivity: the KOR1 DISCOVERX β-Arrestin […] assay and an imaging based β-arrestin translocation assay for confirmatory and selectivity assays. The KOR1 DISCOVERX β-Arrestin […] assay is a commercial platform for direct measurement of GPCR (G protein-coupled receptor) activation by detection of β-Arrestin binding to the KOR. […] In cells that stably express these fusion proteins, ligand stimulation results in the recruitment of β-Arrestin by the GPCR. This interaction encourages the complementation of the two β-galactosidase fragments resulting in the formation of a functional enzyme that converts substrate in the assay medium to a detectable signal. The imaging based high-content β-arrestin translocation assay is based upon the redistribution of β-Arrestin linked to green fluorescent protein (GFP) to the cell surface and detection (Barak, et al. (1997) J. Biol. Chem. 272:27497-27500).
(§2) Initially, a portion (approximately 290,000 compounds) of the MLSMR compound collection was tested in the KOR1 DISCOVERX β-arrestin primary kappa opioid (KOP) agonist and antagonist screens (PUBCHEM AID 1777 and 1778, respectively) at a single concentration point (10 μM). […] These compounds were concurrently tested in a β-galactosidase counterscreen assay (PUBCHEM AID 1966) to assess the possibility that these compounds might inhibit the reporting enzyme. […] The KOR:DOR:MOR selectivity of the compounds was determined using the analogous β-arrestin translocation assays for the DOR (PUBCHEM AID 2370 and 2357, for agonists and antagonist, respectively) and the MOR (PUBCHEM AID 2352 and 2420, for agonists and antagonists, respectively).

The target of data set [2] is T1, DOR. The experiment in a line: PDSP radioligand binding assay. The method, then:
(§3) The broader selectivity of compound 1{3} was tested against additional targets and basic pharmacological properties were assessed. […] The compound was initially screened in radioligand binding assays at a constant concentration (10 μM) to identify possible activity of the compound. Results showing significant activity in the initial screen were selected for Ki determinations.
(§4) As a representative of the Chemotype II series, the MLPCN probe molecule 2{8} was subjected to a binding assay panel of 44 GPCR and other molecular targets by the Pyschoactive Drug Screening Program (PDSP) (Table 10). The compound was initially screened in a radioligand binding assay at a constant concentration (10 μM) to identify possible activity of the compound. Results showing significant activity in the initial screen were selected for Ki determinations.

For data set [3], the target named is D3 (Homo sapiens, UniProt P35462). Briefly: PDSP radioligand binding assay. The procedure:
as §3, §4

Data set [4] has as its target T2, MOR (Homo sapiens, UniProt P35372). Briefly: PDSP radioligand binding assay. The procedure:
as §3, §4

Data set [5] is described as follows: Plasma stability, mouse. The data set is classed as in vitro ADME. From the text: (§5) Plasma stability is a measure of the stability of small molecules and peptides in plasma and is an important parameter that can strongly influence the in vivo efficacy of a test compound. Drug candidates are exposed in plasma to enzymatic processes (proteinases, esterases), and they can undergo intramolecular rearrangement or bind irreversibly (covalently) to proteins.

Data set [6] in a line: Hepatic microsome stability, human. The data set is classed as in vitro ADME. Particulars: human microsomes, 1 hour. From the text: The microsomal stability assay is commonly used to rank compounds according to their metabolic stability. This assay addresses the pharmacologic question of how long the parent compound will remain circulating in plasma within the body.
Data set [7] is described as follows: Stability in PBS at room temperature. The format is physicochemical. Particulars: 48 hours, <0.1% DMSO.
Data set [8] in a line: Plasma stability, human. The data set is classed as in vitro ADME.
Text: as §5

Data set [9] deals with T2, MOR. The experiment in a line: High content imaging β-arrestin translocation assay, MOR antagonist (MOR HCS). The format is cell-based. The note with it: antagonist; average; read-out: Potency, Antitarget MOR HCS.
Text: as §1, §2

Data set [10] can be described thus: Plasma protein binding, mouse. The format is in vitro ADME. The source says: (§6) Plasma protein binding is a measure of a drug's efficiency to bind to the proteins within blood plasma. The less bound a drug is, the more efficiently it can traverse cell membranes or diffuse. Highly plasma protein bound rugs are confined to the vascular space, thereby having a relatively low volume of distribution. In contrast, drugs that remain largely unbound in plasma are generally available for distribution to other organs and tissues. In the instant case, the Chemotype I antagonist 1{3} was marginally available with 88.46% and 80.07% bound to 1 μM and 10 μM mouse plasma protein, respectively, and 93.96% and 88.54% bound to 1 μM and 10 μM human plasma protein, respectively.

The target in data set [11] is T3, KOP receptor (Homo sapiens, UniProt P41145). Briefly: ERK 1/2 activation, inhibition. The data set is classed as cell-based.
The nature of data set [12]: in vitro. Particulars: for Papp: PAMPA. The method, then:
(§7) PAMPA is used as an in vitro model of passive, transcellular permeability. An artificial membrane immobilized on a filter is placed between a donor and acceptor compartment. At the start of the test, drug is introduced in the donor compartment (at various pH). Following the permeation period, the concentrations of compound in the donor compartment and acceptor compartment are measured using UV spectroscopy.

Data set [13] in a line: Plasma protein binding, human. The format is in vitro ADME.
Text: as §6

For data set [14] the following is noted: pH 7.4. The method, then: as §7
For data set [15], the target named is T3, KOP receptor. Briefly: 35S-GTPγS coupling, inhibition. The format is biochemical.
Data set [16] addresses DAT (Homo sapiens, UniProt Q01959). Briefly: PDSP radioligand binding assay. The note with it: Table 10. The procedure: as §3, §4
In data set [17] the target is T2, MOR. The experiment in a line: High content imaging based β-arrestin translocation assay, MOR agonist (MOR HCS). The format is cell-based. Particulars: n = 2, read-out: Average Potency MOR HCS.
Data set [18] deals with Fa2N-4 immortalized human hepatocytes. Briefly: Hepatocyte toxicity. The note with it: read-out: LC50; Fa2N-4 hepatocytes.
[19] abbreviates: Table 10, average of separate Ki determinations.

T1 sequence (P41143 whole entry, the tested form may be a part): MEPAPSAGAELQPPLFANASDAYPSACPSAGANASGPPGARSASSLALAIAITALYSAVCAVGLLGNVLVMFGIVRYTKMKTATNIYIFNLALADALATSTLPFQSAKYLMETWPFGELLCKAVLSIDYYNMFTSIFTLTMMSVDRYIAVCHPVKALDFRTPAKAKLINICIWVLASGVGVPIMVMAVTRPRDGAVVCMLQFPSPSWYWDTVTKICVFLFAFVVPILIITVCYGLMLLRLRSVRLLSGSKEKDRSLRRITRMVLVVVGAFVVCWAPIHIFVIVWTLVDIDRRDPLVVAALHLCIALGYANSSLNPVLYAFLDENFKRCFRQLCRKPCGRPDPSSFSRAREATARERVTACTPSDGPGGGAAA
T2 sequence (P35372 whole entry): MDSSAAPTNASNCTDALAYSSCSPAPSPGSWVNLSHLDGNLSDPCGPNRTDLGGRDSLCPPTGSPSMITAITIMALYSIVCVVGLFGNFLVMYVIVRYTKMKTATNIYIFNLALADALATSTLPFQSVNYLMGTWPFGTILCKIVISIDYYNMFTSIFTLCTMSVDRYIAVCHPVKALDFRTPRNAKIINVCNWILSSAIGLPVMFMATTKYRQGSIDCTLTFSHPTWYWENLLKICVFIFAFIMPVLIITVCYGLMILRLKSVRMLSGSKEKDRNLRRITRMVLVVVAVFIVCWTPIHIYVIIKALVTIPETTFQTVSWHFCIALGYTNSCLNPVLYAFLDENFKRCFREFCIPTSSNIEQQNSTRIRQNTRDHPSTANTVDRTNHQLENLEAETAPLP
Sequence of D3 (P35462 whole entry): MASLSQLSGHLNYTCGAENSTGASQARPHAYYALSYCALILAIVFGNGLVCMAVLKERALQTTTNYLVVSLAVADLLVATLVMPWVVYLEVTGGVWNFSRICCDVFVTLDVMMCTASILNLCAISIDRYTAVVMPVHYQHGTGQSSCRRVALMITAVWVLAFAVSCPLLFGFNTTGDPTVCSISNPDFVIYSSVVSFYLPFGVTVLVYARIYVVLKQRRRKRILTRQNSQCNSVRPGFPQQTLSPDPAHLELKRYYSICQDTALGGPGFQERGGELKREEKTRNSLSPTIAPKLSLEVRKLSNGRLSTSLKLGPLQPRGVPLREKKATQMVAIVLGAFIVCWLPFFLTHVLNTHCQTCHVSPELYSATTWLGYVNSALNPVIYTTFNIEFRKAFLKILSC
T3 sequence (P41145 whole entry): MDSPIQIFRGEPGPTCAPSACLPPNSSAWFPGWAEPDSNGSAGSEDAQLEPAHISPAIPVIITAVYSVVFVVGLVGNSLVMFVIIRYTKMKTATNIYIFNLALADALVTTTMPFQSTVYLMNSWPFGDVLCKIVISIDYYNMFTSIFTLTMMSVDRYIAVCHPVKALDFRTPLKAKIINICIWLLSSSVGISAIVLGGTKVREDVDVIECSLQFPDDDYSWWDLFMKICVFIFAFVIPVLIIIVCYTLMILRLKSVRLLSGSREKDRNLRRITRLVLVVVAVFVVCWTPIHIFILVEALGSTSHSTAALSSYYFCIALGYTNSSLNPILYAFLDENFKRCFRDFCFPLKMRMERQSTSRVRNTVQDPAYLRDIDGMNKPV
Sequence of DAT (Q01959 whole entry, species assumed): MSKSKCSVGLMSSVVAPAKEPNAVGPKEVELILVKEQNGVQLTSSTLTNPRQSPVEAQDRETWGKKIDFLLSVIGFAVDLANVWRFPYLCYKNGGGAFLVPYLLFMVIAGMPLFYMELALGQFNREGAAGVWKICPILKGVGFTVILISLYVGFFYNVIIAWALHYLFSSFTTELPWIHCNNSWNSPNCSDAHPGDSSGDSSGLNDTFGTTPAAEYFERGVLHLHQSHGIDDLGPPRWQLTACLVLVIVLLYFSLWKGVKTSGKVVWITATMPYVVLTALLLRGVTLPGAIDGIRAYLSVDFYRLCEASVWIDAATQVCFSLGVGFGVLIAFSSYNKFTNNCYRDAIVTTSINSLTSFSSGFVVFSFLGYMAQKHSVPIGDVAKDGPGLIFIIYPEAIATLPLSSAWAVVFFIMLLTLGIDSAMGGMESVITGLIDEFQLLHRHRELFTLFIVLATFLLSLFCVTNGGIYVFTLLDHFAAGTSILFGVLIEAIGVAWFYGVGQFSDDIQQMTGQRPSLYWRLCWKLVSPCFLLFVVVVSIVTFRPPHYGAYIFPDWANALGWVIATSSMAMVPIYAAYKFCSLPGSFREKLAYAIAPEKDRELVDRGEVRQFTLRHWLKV

Take `COc1ccc(N2CCN(CCCNC(=O)Cn3c(=O)c4cccn4c4c(C)ccnc43)CC2)cc1` [Compound 1{3}, N-(3-(4-(4-Methoxyphenyl)piperazin-1-yl)propyl)-2-(1-methyl-6-oxopyrido[2,3-e]pyrrolo[1,2-a]pyrazin-5(6H)-yl)acetamide]: the IC50 in data set [1] and in [9] was > 32 µM throughout. Further, the Ki in [2] (Table 5) was 1.44 µM; in data set [3] (Table 5), 0.25 µM; in [4] (Table 5), 1.58 µM. Also, the “plasma stability, remaining” value in data set [5] (mouse, plasma, 3 h) came to 100%; in data set [8] (human, plasma, 3 h), 100%. Besides, in data set [6], the “microsomal stability, remaining” value turned out to be 22%. Also, the parent compound remaining in data set [7] came to 94.42%. In addition, the fraction unbound at 1 μM in data set [10] (plasma, mouse, 1 μM, read-out: bound to plasma protein (converted)) was 0.115; in [13] (plasma, human, 1 μM, read-out: bound to plasma protein (converted)), 0.0604. In addition, the fraction unbound at 10 μM was 0.199 in data set [10] (plasma, mouse, 10 μM, read-out: bound to plasma protein (converted)) and 0.115 in data set [13] (plasma, human, 10 μM, read-out: bound to plasma protein (converted)). Also, the “Imax (% NBNI)” value in data set [11] is given as 90 ± 2^a % NBNI; in [15], 117 ± 5^a % NBNI. Further, the Papp in data set [12] (pH 5) stood at 27 ×10⁻⁶ cm/s; in [12] (pH 6.2), 227 ×10⁻⁶ cm/s; in [12] (pH 7.4), 757 ×10⁻⁶ cm/s. The “blood brain barrier PAMPA permeability” value in data set [14] was 51 ×10⁻⁶ cm/s.

In the case of `Clc1ccc(CSc2nnc(-c3ccccn3)n2Cc2ccco2)cc1Cl` [Compound 2{8}], the Ki in [16] was > 10 µM; in [2] (setting [19]), 5.35 µM; in data set [3] (Table 10) it was > 10 µM; in [4] (setting [19]), 1.9 µM. Besides, the “plasma stability, remaining” value in data set [5] (mouse plasma, 3 hours) was 100%; in [8] (human plasma, 3 hours), 100%. For the same compound, the “microsomal stability, remaining” value in [6] came to 0.03%. The bound to plasma in data set [10] (mouse plasma) and in data set [13] (human plasma) was > 99% in each case. Besides, the EC50 in [17] is > 32 µM. Also, the PAMPA permeability turned out to be 1793 ×10⁻⁶ cm/s in data set [12] (donor pH 5), 1921 ×10⁻⁶ cm/s in data set [12] (donor pH 6.2) and 2089 ×10⁻⁶ cm/s in data set [12] (donor pH 7.4). The CC50 in data set [18] is > 50 µM.
